This is an account of results in patent US8961949B2, “Polymer-metal complex composite having MRI contrast ability and MRI contrasting and/or antitumor composition using the same” (Japan Science and Technology Agency, priority 2008, dated 2015).

Molecules are shown by their SMILES. “Also recorded” adds a separate entry of the source.

Data set [1] relates to human pancreatic cancer cells (BxPC3). The data set is described as follows: antitumor effect (tumor size) on subcutaneous BxPC3 tumor. The format is in vivo, Nude mice. The note with it: Pt 8 mg/ml.
The conditions of data set [2]: blood at 1, 4, 8 and 24 hours after tail vein injection of 0.2 ml.
Description: After collection, the blood was rapidly mixed with heparin to prevent coagulation, and then centrifuged to collect plasma only. The collected plasma was mixed with 90% HNO3, heated and dried, dissolved in 5N HCl, and then diluted appropriately, followed by ICP-MS to determine Gd and Pt contents.
The test system of data set [3] is human pancreatic cancer cells (BxPC3). Kind of data set: in vivo MRI in orthotopic transplantation model of BxPC3. More on the design: species or system Nude mice. The settings on record: equal amounts of micelles and free Gd-DTPA. The method, then:
Nude mice (female, 6 weeks of age) were laparotomized under inhalation anesthesia, injected with 0.1 ml of human pancreatic cancer cells (BxPC3) under the serous membrane of the pancreas and then kept for 1 month to prepare an orthotopic transplantation model. MRI was imaged with a 4.7 Tesla Superconductive Magnet Unit (Varian, Palo Alto, Calif.) VXR-MRI Console under the following imaging conditions: repetition time (TR): 500 ms, echo time (TE): 15 ms, field of view (FOV): 32 mm×32 mm, matrix size: 256×256, slice thickness: 2 mm to obtain Spin Echo T1w images. The mice were injected under 5% isoflurane inhalation anesthesia and maintained under 1.2% isoflurane anesthesia during imaging. […] Imaging was performed every 5 minutes during the first 1 hour after injection via the tail vein, then every 15 minutes for 4 hours. Moreover, an equal amount of free Gd-DTPA serving as a control was also injected via the tail vein and imaged in the same manner. The resulting images were analyzed by Mathematica (Wolfram Research Inc.) and Excel (Microsoft, Inc.).

As to `O=C1[O][Pt]2([NH][C@@H]3CCCC[C@H]3[NH]2)[O]C1=O` [oxaliplatin], the “antitumor effect (tumor size), words” value in data set [1] (0.2 ml i.v. on day 0, 2 and 4) is listed as “substantially the same tendency as the control”; in data set [1] (0.2 ml i.v. on day 0, 2 and 4, listed as Oxaliplatin), “little therapeutic effect”. Also, the “residual drug content in plasma / retention in blood” value in data set [2] is “rapidly disappear from plasma”.

`O=C([O-])CN(CCN(CC(=O)[O-])CC(=O)O)CCN(CC(=O)[O-])CC(=O)O.[Gd+3]` [Gd-DTPA, gadolinium diethylene triamine pentaacetic acid]: in data set [3], the “contrast enhancement / intensity in tumor” value is “little contrast enhancement; also recorded: little increase in intensity”. Also, the “residual drug content in plasma / retention in blood” value in data set [2] was “rapidly disappear from plasma”.
